In patent US20110144056A1, “PYRAZOLE DERIVATIVES USEFUL AS INHIBITORS OF FAAH” (priority 2008, published 2011):

Key:
FAAH [1] = molecular target: T1, FAAH (Homo sapiens, UniProt O00519); test: FAAH enzyme assay, lysate of CHO cells expressing human FAAH; format: biochemical; conditions: CHO cell lysate, read-out: Human Lysate
T1 construct: The full length FAAH was subcloned into the mammalian expression vector, pcDEF.neo; expressed in transfected cells; cDNA from Origene
T1 sequence (O00519 1-579): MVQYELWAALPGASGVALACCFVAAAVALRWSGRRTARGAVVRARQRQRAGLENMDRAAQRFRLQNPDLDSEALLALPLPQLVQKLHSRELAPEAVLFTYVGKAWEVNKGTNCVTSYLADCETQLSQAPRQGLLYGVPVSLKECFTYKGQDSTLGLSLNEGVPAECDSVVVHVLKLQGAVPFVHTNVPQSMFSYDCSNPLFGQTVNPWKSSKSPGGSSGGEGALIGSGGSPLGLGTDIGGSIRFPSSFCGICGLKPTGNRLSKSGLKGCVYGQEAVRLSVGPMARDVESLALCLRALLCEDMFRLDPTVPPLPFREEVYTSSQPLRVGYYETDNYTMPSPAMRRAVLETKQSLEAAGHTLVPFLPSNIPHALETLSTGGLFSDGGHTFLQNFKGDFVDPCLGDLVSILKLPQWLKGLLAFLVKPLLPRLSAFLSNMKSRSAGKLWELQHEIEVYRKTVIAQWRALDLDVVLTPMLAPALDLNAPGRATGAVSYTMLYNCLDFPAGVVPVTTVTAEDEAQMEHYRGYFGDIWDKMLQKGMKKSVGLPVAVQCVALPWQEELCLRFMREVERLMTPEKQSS
Source text: (§1) To assist in assay development stable cell lines for human, murine and rat full length FAAH were developed. Human FAAH cDNA (Accession No: NM_001441.1) was purchased from Origene (Rockville, Md.). The full length FAAH was subcloned into the mammalian expression vector, pcDEF.neo, using XbaI and […] restriction sites and used for stable cell line generation.
CHO cells expressing FAAH were used to prepare either crude cell lysate or microsome fractions. To harvest cells, tissue culture media was decanted, the monolayer washed three times with Ca^++Mg^++ free PBS and cells recovered after 15 min in enzyme free dissociation media (Millipore Corp, Billerica, Mass.). Cells were collected by centrifuging at 2000 rpm for 15 min. and the cell pellet re-suspended with 50 mM HEPES (pH 7.4) containing 1 mM EDTA and the protease inhibitors aprotinin (1 mg/ml) and leupeptin (100 μM). The suspension was sonicated at 4° C. and the cell lysate recovered after centrifuging at 12,000×g (14,600 rpm, SS34 rotor) for 20 min at 4° C. to form a crude pellet of cell debris, nuclei, peroxisomes, lysosomes, and mitochondria; the supernatant or cell lysate was used for FAAH enzyme assay. In some cases, microsomes fractions enriched in FAAH were prepared by centrifuging the cell lysate further at 27,000 rpm (100,000×g) in SW28 rotor for 50 minutes at 4° C. The pellet containing FAAH-enriched microsomes was re-suspend in 50 mM HEPES, (pH 7.4) 1 mM EDTA, and any remaining DNA sheared by passage of material through a 23 gauge needle and aliquots of enzyme were store at −80° C. prior to use.
(American Radiolabeled Chemicals; 1 mCi/ml) with FAAH (Life Sciences (1995), 56, 1999-2005 and Journal of Pharmacology and Experimented Therapeutics (1997), 283, 729-734), Analytical. Biochemistry (2003), 318, 270-5. In addition, routine assays were performed monitoring hydrolysis of arachidonyl-7-amino-4-methylcoumarin amide (AAMCA) by following increase in fluorescence upon release of 7-amino 4-methyl coumarin (λEX=355 nm, (λEM=460 nm). Analytical. Biochemistry (2005). 343, 143-51.
(§2) Assays are performed on either cell lysate or microsome fractions prepared as described or in whole cell format employing either the fluorescent substrate AAMCA (Cayman chemical, Ann Arbor, Mich.,) or ^3H-anandmaide ([ETHANOLAMINE-1-3H]American Radiolabeled Chemicals; 1 mCi/ml). The cell lysate or microsome assay is performed in Costar black wall, clear bottom plates by adding FAAH_CHO (whole cell, cell lysate or microsome) in assay buffer (50 mM Phosphate, pH 8.0, 1 mM EDTA, 200 mM KCl, 0.2% glycerol, 0.1% fatty acid free BSA) to each well, followed by either DMSO or compound and allowed to incubate at 22-25° C. for fifteen minutes. AAMCA substrate was used to achieve a final concentration of 1 μM and reaction allowed to proceed at room temperature for 1-3 hours. Fluorescent release as a measure of FAAH activity was monitored by reading the plate in a CytoFluor Multiplate Reader ([…]). Whole cell assay is conducted with cells harvested after rinsing tissue culture flasks three times with Ca^++Mg^++ free PBS, incubating for 10 mm in Enzyme free dissociation media and centrifuging for 5 minutes at 1,000 rpm in table top centrifuge. Cells are resuspended in assay buffer at desired cell number in (4×10^4 cells/assay in 96-well format; 1×10^4 cells/assay in 384-well format) and assayed as described.
Alternatively, assays are performed using anandamide [ethanolamine 1-^3H] (specific activity of 10 Ci/mmol) diluted with cold anandamide to achieve a final assay concentration of 1 μM anandamide (˜50,000 cpm). Enzyme (CHO cell lysate, brain or liver homogenate) is incubated in assay buffer (50 mM Phosphate, pH 8.0, 1 mM EDTA, 200 mM KCl, 0.2% glycerol, 0.1% fatty acid free BSA) with inhibitor at 25° C. for 30 minutes. The reaction was terminated by addition of 2 volumes of chloroform:methanol (1:1) and mixed by vortexing. […]

FAAH [2] = molecular target: T1, FAAH; test: FAAH whole cell assay, CHO cells expressing human FAAH; format: cell-based; conditions: read-out: Human whole cell
Source text: as §1
(§3) Murine (accession number NM_010173) and Rat FAAH (accession number NM_024132) was amplified by reverse transcriptase polymerase chain reaction (RT-PCR) from brain cDNA (BD Biosciences, San Jose, Calif.) using primers 1 and 2 or primers 1 and 3 respectively (see Table). The resulting PCR product was ligated into pCR4TOPO and DNA sequence confirmed. The full length murine FAAH was subcloned into the mammalian expression vector, pcDEFneo using either EcoRI (murine) or KpnI and EcoRI (rat) restriction sites. Chinese hamster ovary cells (CHO) were transfected following manufacturers protocol (AMAXA). Forty eight hours post transfection, cells were trypsinized and transferred to 96 well plates in Iscove's DMEM media supplemented with 2 mM Glutamine, 10% fetal calf serum, 1 mg/ml geneticin and HT Supplement (0.1 mM sodium hypoxanthine, 0.016 mM thymidine) in order to isolate single clones. Following selection in geneticin, individual clones were selected and FAAH activity was assessed using a whole cell fluorescent anandamide assay, modified from Ramarao et al (2005). Following removal of tissue culture media cells were dislodged following addition of Cellstripper (Mediatech, Inc. Manassas, Va.) and transferred to 96 well black clear bottom assay plate, centrifuged at 1,000 rpm for 3 mins and media removed and replaced with assay buffer (50 mM Tris pH8.0, 1 mM EDTA, 0.1% fatty acid free BSA). The reaction was initiated by addition of fluorescent substrate, AMC Arachidonoyl Amide (Cayman Chemical, Ann Arbor, Mich.) to 1 μM and reaction allowed to proceed for 2 hours at room temperature. Release of fluorescence was monitored in a CytoFluor Multiplate Reader. Cells expressing the highest amount of FAAH activity were selected for study with FAAH inhibitors.
as §2

FAAH [3] = molecular target: T2, FAAH (Rattus norvegicus, UniProt P97612); test: FAAH whole cell assay, CHO cells expressing rat FAAH; format: cell-based
T2 construct: expressed in transfected cells; cDNA by RT-PCR from brain cDNA (BD Biosciences)
T2 sequence (P97612 1-579): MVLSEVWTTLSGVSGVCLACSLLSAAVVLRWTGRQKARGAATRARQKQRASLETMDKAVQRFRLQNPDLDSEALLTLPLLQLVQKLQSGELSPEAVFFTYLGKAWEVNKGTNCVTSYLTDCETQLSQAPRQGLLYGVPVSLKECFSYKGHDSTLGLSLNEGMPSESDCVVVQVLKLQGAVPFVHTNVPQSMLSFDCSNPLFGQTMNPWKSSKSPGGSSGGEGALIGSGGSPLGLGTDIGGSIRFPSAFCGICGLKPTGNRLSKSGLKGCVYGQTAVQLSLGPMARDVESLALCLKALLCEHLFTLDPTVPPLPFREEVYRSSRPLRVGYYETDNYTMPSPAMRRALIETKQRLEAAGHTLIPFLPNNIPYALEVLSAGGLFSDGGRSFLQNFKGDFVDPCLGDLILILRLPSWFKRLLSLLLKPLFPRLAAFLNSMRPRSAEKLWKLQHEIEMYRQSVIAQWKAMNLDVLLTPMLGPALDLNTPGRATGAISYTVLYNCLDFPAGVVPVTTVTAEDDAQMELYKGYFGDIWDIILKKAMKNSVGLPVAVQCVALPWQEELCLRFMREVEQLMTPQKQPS
Source text: as §3, §2

Row | Structure (SMILES) | IC50 (FAAH [1]) [nM] | IC50 (FAAH [2]) [nM] | IC50 (FAAH [3]) [nM]
1 | CS(=O)(=O)c1ccc(-c2c(Sc3ccc(Cl)cc3)cnn2-c2ccc(F)cc2)cc1 [Ex 25, 4-[(4-Chlorophenyl)thio]-2-(4-fluorophenyl)-3-[4-(methylsulfonyl)phenyl]-1H-pyrazole] | 271 | 235 | 294
2 | Clc1ccc(Sc2cn(-c3ccccc3)nc2-c2ccc(-c3c[nH]nn3)cc2)cc1 [Example 88, 4-(4-{4-[(4-Chlorophenyl)thio]-1-phenyl-1H-pyrazol-3-yl}phenyl)-1H-1,2,3-triazole] | 121 | 395 | 157
3 | O=C(NCCCl)c1ccc(-c2nn(-c3ccccc3)cc2Sc2ccc(Cl)cc2)cc1 [Example 121, N-(2-Chloroethyl)-4-{4-[(4-chlorophenyl)thio]-1-phenyl-1H-pyrazol-3-yl}benzamide] | 80 | 124 | 52

More lines, in order of falling IC50 (FAAH [1]), values ahead:

Row | IC50 (FAAH [1]) [nM] | IC50 (FAAH [2]) [nM] | IC50 (FAAH [3]) [nM] | Structure (SMILES)
4 | 101 | 590 | 137 | [O-][n+]1cccc(-n2cc(Sc3ccc(Cl)cc3)c(-c3ccc(-c4ncon4)cc3)n2)c1 [Example 75]
5 | 26 | 66 | 18 | CC(C)(O)c1cnc(-c2nn(-c3ccc(F)cn3)cc2Sc2ccc(Cl)cc2)cn1 [Example 229, 2-{5-[4-[(4-Chlorophenyl)thio]-1-(5-fluoropyridin-2-yl)-1H-pyrazol-3-yl}pyrazin-2-yl]propan-2-ol]
